Test results: publication PMC11645656, “MRGPRX4 mediates phospho-drug associated pruritus in a humanized mouse model” (Science translational medicine, 2024)
Where “and” joins values, the source holds several entries; their conditions need not be identical. Equal values may be shown once. Read-outs that look alike come from different tables or passages of the source.

Tests used:
MRGPRX4 (S83) = biological target: T1, MRGPRX4 (S83) (Homo sapiens, UniProt Q96LA9, L83S); assay: EC50 determination, intracellular calcium mobilization in MRGPRX4 stably expressed HEK293 cells (FLIPR Calcium 5, Flexstation-3); assay type: cell-based; design: Fig. 1D dose-response, calcium mobilization response (individual replicate) / calcium mobilization response (Fig. 1D dose-response raw data): unit not given here
T1 construct: expressed in transfected cells
Summary of the method: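 HEK293 cells stably expressing receptor (parental HEK293 alongside) loaded with Calcium 5 dye in HBSS/20 mM HEPES, pH 7.4, 1 h at 37 °C, then compounds added. Response = peak minus pre-drug baseline, triplicates averaged; EC50 from 4PL fit.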

[1] = system: NP2-X4+ mice (MRGPRX4 in Mrgpra3+ NP2 sensory neurons); assay: Itch behavioral study (scratching bouts after subcutaneous nape injection) in NP2-X4+ mice; assay type: in vivo, mouse
NP2-WT mice = assay: Itch behavioral study (scratching bouts after subcutaneous nape injection) in littermate control NP2-WT mice; assay type: in vivo; details: 30 min after injection of 50 μl 10 mM into the nape, each cell one mouse
Excerpt: Fig. 2. Phosphate monoester prodrugs induce itch in NP2-MRGPRX4+ mice through activating NP2 primary sensory neurons. (A) Mating strategy to generate NP2-X4+ mice. (B) In situ hybridization showing MRGPRX4 transcripts (magenta) in NP2-X4+ DRG as indicated by arrowheads (left) but not in littermate control NP2-WT (right). NP2 subpopulation accounts for 5% of total DRG neurons. DAPI, blue. Scale bar, 50 μm. […] . Data are expressed as mean ± SEM. *p< 0.05, **p< 0.01 and ***p< 0.001 by two-tailed unpaired Student’s t-test. ns = no statistical significance observed. (D and E) Traces of average (top, depicted as mean ± 95% confidence interval) and individual (bottom, reflected by the heatmap) calcium activity, measured by fluorescence intensity normalized to the baseline intensity (FT/F0) over time of NP2-X4+ (D) and NP2-WT (E) DRG neurons labelled with GCaMP6s (n = 110–150 neurons pooled from 3–7 independent culture vessels from 2–4 mice in each condition). 10 μM phospho-drugs and 1 mM CQ were added as indicated by the arrowheads. Neurons with FT/F0 > 1.5 after compound application were considered a positive responder. NP2-X4+: NP2-MRGPRX4+; DRG, dorsal root ganglia; CQ: chloroquine.
. All the animals used were heterozygous unless otherwise specified. NP2-X4+ and NP2-WT littermates were generated by crossing Mrgpra3-Cre to Rosa26-lsl-MRGPRX4 as detailed previously ([15]). NP2-X4+ mice were further crossed to homozygous Rosa26-lsl-GCaMP6s to obtain NP2-WT/GCaMP6s and NP2-X4+/GCaMP6s animals. A detailed mating strategy is illustrated in fig. S5. Pirt-Cre-GCaMP6s animals were acquired by crossing Pirt-Cre to homozygous Rosa26-lsl-GCaMP6s. Pirt-Cre animals were generated through homologous recombination as indicated previously ([37]). Rosa26-lsl-GCaMP6s mouse line was provided by Dr. Dwight Bergles’ lab at the Johns Hopkins School of Medicine.

MRGPRX4 WT (S83) = MRGPRX4 WT (S83) (Homo sapiens, UniProt Q96LA9, L83S); assay: Calcium mobilization assay (FLIPR), WT (S83) MRGPRX4 transiently expressed in HEK293T cells; assay type: cell-based; design: expressed in transfected cells; host or cells: HEK293T, transient; details: for fig. S8 response (normalized), concentration-response: WT, single replicate; for Potency at S83- vs L83-MRGPRX4: calcium mobilization, compared with S83L (A17)
Excerpt: (§1) Fig. 4. […] Hydrogen bond is shown as cyan dashed lines. […] Data are from three independent experiments, performed in triplicate. (E) pEC50 plots of various agonists toward S83- and L83-MRGPRX4 through calcium mobilization assay. […] Each data point represents an independent experiment, performed in triplicate. The extra sum-of-square F test was used to examine the difference in EC50 values. One-sided t-test was used for nateglinide. *p< 0.05, **p< 0.01 and ***p< 0.001. ns = no statistical significance. Both (D) and (E) are reported as the mean ± SEM. N.D.= no detectable response ≤ 100 μM.
(§2) HEK293 cells and MRGPRX4 stably expressed HEK293 cells were seeded in 100 μl culture media on 96-well plates at a density of 40,000 cells per well and incubated overnight. The next day, the media were replaced with a dye-loading solution from the FLIPR Calcium 5 assay kit (Molecular Devices), diluted in Hank's Balanced Salt Solution (HBSS) with 20 mM HEPES, pH 7.4. After 1 h of incubation at 37°C, cells were allowed to recover for 10 min in the dark at room temperature prior to performing intracellular calcium mobilization assay in a Flexstation-3 instrument with SoftMax®Pro 7.1 software (Molecular Devices). Serial concentrations of tested drugs were prepared in HBSS/HEPES solution at 3X concentration. […] Compounds were tested in triplicates and the signals were averaged. Responses were determined by subtracting the minimum signal (at the baseline before adding the drug) from the maximum signal (obtained after drug stimulation). Four-parameter logistic (4PL) curve fit was used to plot the dose-response curves. […] Both dose-response curve fitting and EC50s calculation are computed with GraphPad Prism software (version: 6.o or above).
(§3) To generate murine Mrgprs expressing cells, HEK293T cells (ATCC) were seeded on poly-D-lysine coated 96 well plate at 25,000 cells per well one day prior to transfection. HEK293T cells were transiently co-transfected with the mammalian expression plasmids carrying cDNA encoding the murine Mrgpr genes and plasmid inserted with cDNA encoding murine α-subunit of the heterotrimeric G15 protein (Gα15) in triplicates using Lipofectamine LTX reagents (Thermo Scientific). To generate WT, S83L, and alanine mutant MRGPRX4-expressing cells, HEK293T cells were seeded on poly-D-lysine coated 384 well plate at 12,000 cells per well one day prior to transfection. Mammalian expression plasmids pLX304 (vector from Addgene) carrying different MRGPRX4 coding sequences were transiently transfected into HEK293T cells in triplicates with Lipofectamine LTX reagents (Thermo Scientific). Intracellular calcium mobilization assays were performed after one day of transfection. Murine Mrgprs tested include Mrgpra1, Mrgpra2a, Mrgpra2b, Mrgpra3, Mrgpra4, Mrgpra6, Mrgpra9, Mrgpra10, Mrgpra11, Mrgpra12, Mrgpra14, Mrgprb5, Mrgprb6, Mrgprb10, Mrgprb11, and Mrgprc11. WT and mutant MRGPRX4 constructs tested include WT, S83L, R82A, R86A, R95A, W158A, Y250A, and Y254A.

MRGPRX4 S83L (L83) = MRGPRX4 S83L (L83) (Homo sapiens, UniProt Q96LA9); assay: Calcium mobilization assay (FLIPR), S83L MRGPRX4 transiently expressed in HEK293T cells; assay type: cell-based; design: expressed in transfected cells; host or cells: HEK293T, transient; details: Fig. 4E, unit not in the head, taken from Concentration (M) of the sheet and pEC50 [M] of Fig. 4E, read-out: EC50s (each well represents individual experiment)
Excerpt: as §1, §2, §3

Chain of MRGPRX4 S83L (L83) (Q96LA9 whole entry, stated change not applied): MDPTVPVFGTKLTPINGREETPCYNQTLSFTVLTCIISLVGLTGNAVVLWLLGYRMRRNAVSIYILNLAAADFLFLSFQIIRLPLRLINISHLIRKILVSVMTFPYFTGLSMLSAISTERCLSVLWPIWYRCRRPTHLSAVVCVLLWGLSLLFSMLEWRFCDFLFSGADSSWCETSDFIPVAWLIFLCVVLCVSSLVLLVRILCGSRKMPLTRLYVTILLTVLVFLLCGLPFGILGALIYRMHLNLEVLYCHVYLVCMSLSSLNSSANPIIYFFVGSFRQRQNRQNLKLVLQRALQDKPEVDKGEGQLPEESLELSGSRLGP
T1 sequence (Q96LA9 whole entry L83S): as the sequence (Q96LA9 whole entry, stated change not applied) above, with L83S counted along it
Chain of MRGPRX4 WT (S83) (Q96LA9 whole entry L83S): as the sequence (Q96LA9 whole entry, stated change not applied) above, with L83S counted along it

CC(=O)OCC(=O)[C@@]1(O)[C@H](C)C[C@H]2[C@@H]3CCC4=CC(=O)C=C[C@]4(C)[C@@]3(F)[C@@H](O)C[C@@]21C [Dexamethasone acetate]
Fig. 1D dose-response, calcium mobilization response (individual replicate) (MRGPRX4 (S83); Concentration 9.76563e-7 M): -48.502 and -46.356 and -48.988 and -43.676 and -48.158 and -43.385 and -85.123 and -4.652 and -42.229
Fig. 1D dose-response, calcium mobilization response (individual replicate) (MRGPRX4 (S83); Concentration 1.95313e-6 M): -22.164 and -36.691 and -35.570 and -37.729 and -34.474 and -34.794 and -19.078 and -53.999 and -20.889
Fig. 1D dose-response, calcium mobilization response (individual replicate) (MRGPRX4 (S83); Concentration 3.90625e-6 M): -39.055 and -53.135 and -70.767 and -48.544 and -36.360 and -36.045 and -91.099 and -38.430 and -1.751
Fig. 1D dose-response, calcium mobilization response (individual replicate) (MRGPRX4 (S83); Concentration 7.8125e-6 M): -33.331 and -71.560 and -49.660 and -45.756 and -42.005 and -31.885 and -29.162 and -70.876 and -31.653
Fig. 1D dose-response, calcium mobilization response (individual replicate) (MRGPRX4 (S83); Concentration 1.5625e-5 M): -37.387 and -60.340 and -52.439 and -33.449 and -38.008 and -34.728 and -69.819 and -42.708 and -12.221
Fig. 1D dose-response, calcium mobilization response (individual replicate) (MRGPRX4 (S83); Concentration 3.125e-5 M): -47.434 and -56.549 and -63.778 and -43.258 and -41.889 and -38.256 and -62.786 and -46.904 and -33.452
Fig. 1D dose-response, calcium mobilization response (individual replicate) (MRGPRX4 (S83); Concentration 6.25e-5 M): -61.858 and -50.883 and -76.723 and -47.363 and -44.877 and -37.522 and -10.190 and -37.194 and -110.631
Fig. 1D dose-response, calcium mobilization response (individual replicate) (MRGPRX4 (S83); Concentration 0.00025 M): -64.043 and -50.303 and -56.027 and -44.560 and -42.575 and -45.473 and -89.145 and -53.447 and -8.636
Fig. 1D dose-response, calcium mobilization response (individual replicate) (MRGPRX4 (S83); Concentration 0.0005 M): -48.359 and -6.029 and -35.851 and -38.822 and -45.234 and -19.021 and -30.402 and -28.831 and -36.978
Fig. 1D dose-response, calcium mobilization response (individual replicate) (MRGPRX4 (S83); Concentration 0.001 M): -37.786 and -38.347 and -50.572 and -37.033 and -22.575 and -15.877 and -9.453 and -18.673 and -62.758
Itch in both NP2-X4+ and littermate WT controls ([1]; 50 μl 10 mM nape injection): slightly elevated itch
Scratching / itch behavior, NP2-X4+ mice vs WT littermates ([1]; 50 μl 10 mM nape injection, 30 min): no differences in itch behavior were detected
Scratching bouts of individual animals ([1]; NP2-X4+, 30 min after injection of 50 μl 10 mM into the nape, each cell one mouse): 0 and 26 and 59 and 22 and 2 and 3 and 9 (2×) and 20
Scratching bouts of individual animals (NP2-WT mice): 20 and 31 and 30 and 18 and 14 and 9 and 75 and 34 and 3

C[C@]12CC3CC(C(=O)N[C@H](Cc4ccccc4)C(=O)O)(C1)C[C@@](C)(C3)C2 [MS47134]
EC50 (MRGPRX4 WT (S83); WT (S83), Fig. 4E, unit not in the head, taken from Concentration (M) of the sheet and pEC50 [M] of Fig. 4E, read-out: EC50s (each well represents individual experiment)): 1e-05 M and 9.11e-06 M and 5.25e-06 M
fig. S8 response (normalized), concentration-response (MRGPRX4 WT (S83); 188.2 pM): 11.5885 and 10.879 and 5.439 and 5.904 and 6.997 and 13.1195 and 4.054
fig. S8 response (normalized), concentration-response (MRGPRX4 WT (S83); 564.5 pM): 1.419 and 2.1285 and 14.19 and 0.656 and -3.499 and 16.1808 and 2.837 and 3.081
fig. S8 response (normalized), concentration-response (MRGPRX4 WT (S83); 1.69351e-9 M): 13.717 and 21.0485 and 8.041 and 7.872 and 6.341 and 14.6502 and 17.1869 and 20.1054
fig. S8 response (normalized), concentration-response (MRGPRX4 WT (S83); 5.08053e-9 M): 10.406 and 7.095 and 9.933 and 10.7143 and 1.312 and 11.3703 and 16.214 and 17.6733
fig. S8 response (normalized), concentration-response (MRGPRX4 WT (S83); 1.52416e-8 M): 16.555 and 11.5885 and 5.439 and 11.8076 and 1.749 and 16.6181 and 8.6745 and 13.0523
fig. S8 response (normalized), concentration-response (MRGPRX4 WT (S83); 4.57247e-8 M): 20.1025 and 15.609 and 18.447 and 12.2449 and 9.84 and 19.0233 and 11.1066
fig. S8 response (normalized), concentration-response (MRGPRX4 WT (S83); 1.37174e-7 M): 23.177 and 26.015 and 20.1025 and 11.3703 and 12.9009 and 13.1195 and 23.7536
fig. S8 response (normalized), concentration-response (MRGPRX4 WT (S83); 4.11523e-7 M): 18.92 and 25.069 and 17.2645 and 15.0875 and 10.7143 and 17.93 and 19.3758 and 16.214
fig. S8 response (normalized), concentration-response (MRGPRX4 WT (S83); 1.23457e-6 M): 24.3595 and 15.8455 and 8.041 and 11.5889 and 9.621 and 14.4315 and 14.7548 and 20.5918
fig. S8 response (normalized), concentration-response (MRGPRX4 WT (S83); 3.7037e-6 M): 23.8865 and 16.3185 and 10.879 and 20.3353 and 21.8659 and 19.0233 and 22.7807 and 20.3486
fig. S8 response (normalized), concentration-response (MRGPRX4 WT (S83); 1.11111e-5 M): 45.6445 and 43.516 and 42.3335 and 43.5131 and 43.9504 and 44.6064 and 52.9388 and 53.9116
fig. S8 response (normalized), concentration-response (MRGPRX4 WT (S83); 3.33333e-5 M): 61.017 and 69.0579 and 61.4432 and 62.3178 and 54.6647 and 48.561 and 41.5079
fig. S8 response (normalized), concentration-response (MRGPRX4 WT (S83); 0.0001 M): 60.544 and 75.4434 and 62.6724 and 56.414 and 74.7813 and 68.4402 and 77.9895 and 57.3166
Potency at S83- vs L83-MRGPRX4 (MRGPRX4 WT (S83)): the L83 allele, as previously reported, exhibited greater potency and efficacy
EC50 (MRGPRX4 S83L (L83)): 2.33e-07 M and 2.26e-07 M and 1.83e-07 M

CC(C)[C@H]1CC[C@H](C(=O)N[C@H](Cc2ccccc2)C(=O)O)CC1 [Nateglinide]
EC50 (MRGPRX4 WT (S83); S83-MRGPRX4, Fig. 4E, read-out: pEC50 (converted)): > 0.0001 M
fig. S8 response (normalized), concentration-response (MRGPRX4 WT (S83); 1.52416e-8 M): 11.8843
fig. S8 response (normalized), concentration-response (MRGPRX4 WT (S83); 4.11523e-7 M): 16.3409
fig. S8 response (normalized), concentration-response (MRGPRX4 WT (S83); 1.23457e-6 M): 15.4027
Potency at S83- vs L83-MRGPRX4 (MRGPRX4 WT (S83)): the L83 allele, as previously reported, exhibited greater potency and efficacy
EC50 (MRGPRX4 S83L (L83)): 1.04e-06 M and 7.61e-07 M and 9.29e-07 M
